Assay results reported in patent publication US20120238488A1, “COMPOUNDS AND METHODS FOR TREATING NEOPLASIA” (priority 2009, published 2012).

Key:
[1] = system: 22 different cell lines, nine tumor panels (lung, melanoma, ovary, prostate, CNS, breast, pancreas colon and renal); test: SRB assay, all tumor cell line panels (summary statements); format: cell-based, human; conditions: lung, breast, CNS, colon, prostate, ovary, pancreas, kidney and melanoma lines, including a multidrug resistant cell line
Method: (§1) SRB assays were performed according to standard National Cancer Institute Guidelines. Briefly, human tumor cells from different cancer panels were seeded into 96 well plates in 100 μL (plating densities ranging from 5-40,000 cells/well depending on the doubling time of individual cell lines) in serum-containing media for twenty-four hours prior to the addition of the compounds to be assayed. After 24 hours, one plate of each cell line was fixed in situ with trichloroacetic acid (TCA). The fixed slides were used to determine the cell population for each cell line at the time of drug addition (Tz). Each compound to be tested was solubilized in DMSO and the desired concentration was then added to the medium and diluted serially 1:10 to provide a total of five or ten drug concentrations plus control (in a final volume of 200 μL). The starting dose before any dilution was 100 uM for all compounds.
(§2) Following drug addition, each culture was incubated for forty-eight hours. The assay was terminated with the addition of cold TCA. The supernatant was discarded, and the plates were washed with tap water and air dried. Sulforhodamine B (SRB) solution was then added to each well. After staining, the bound stain was solubilized and the absorbance was read on an automated plate reader at a wavelength of 515 nm.
(§3) Using the absorbance measurements [time zero, (Tz), control growth, (C), and test growth in the presence of drug at the ten concentration levels (Ti)], the percentage growth was calculated at each of the drug concentrations levels. Percentage growth inhibition was calculated as:
Three dose response parameters were calculated for each experimental agent. […] The drug concentration resulting in total growth inhibition (TGI) was calculated from Ti=Tz. The LC50 (concentration of drug resulting in a 50% reduction in the measured protein at the end of the drug treatment as compared to that at the beginning) indicating a net loss of cells following treatment was calculated from [(Ti−Tz)/Tz]×100=−50.
Each of these parameters in Table 4 was calculated in a sulforhodamine B (SRB) assay, which provides a colorimetric measure of a compound's anti-cancer activity. SRB assays were performed with compounds of the invention in 22 different cell lines (shaded in light gray in Table 4), which represent nine different tumor panels (lung, melanoma, ovary, prostate, CNS, breast, pancreas colon and renal). […] Paclitaxel was added as a non-Na^+K^+-ATPase inhibitor control.

H160 (Lung) = test: SRB assay, H160; format: cell-based, human; conditions: 48 h
Method: as §1, §2, §3
(§4) [(Ti−Tz)/(C−Tz)]×100 for concentrations for which Ti>/=Tz
(§5) [(Ti−Tz)/Tz]×100 for concentrations for which Ti<Tz.
(§6) Three dose response parameters were calculated for each experimental agent. Growth inhibition of 50% (GI50) was calculated from [(Ti−Tz)/(C−Tz)]×100=50, which was the drug concentration resulting in a 50% reduction in the net protein increase (as measured by SRB staining) in control cells during the drug. The drug concentration resulting in total growth inhibition (TGI) was calculated from Ti=Tz. The LC50 (concentration of drug resulting in a 50% reduction in the measured protein at the end of the drug treatment as compared to that at the beginning) indicating a net loss of cells following treatment was calculated from [(Ti−Tz)/Tz]×100=−50.
(§7) Values were calculated for each of these three parameters when the level of activity was reached; however, if the effect was not reached or was exceeded, the value for that parameter was expressed as greater or less than the maximum or minimum concentration tested.
(§8) Table 4 summarizes results characterizing the effects of compound Nos. 120, 12, 61, 1, and 56 on GI50, which measures the cell growth inhibitory power of the compound, TGI, which measures cytostatic effect (TGI) and LC50, which signifies cytotoxic effect. Each of these parameters in Table 4 was calculated in a sulforhodamine B (SRB) assay, which provides a colorimetric measure of a compound's anti-cancer activity. SRB assays were performed with compounds of the invention in 22 different cell lines (shaded in light gray in Table 4), which represent nine different tumor panels (lung, melanoma, ovary, prostate, CNS, breast, pancreas colon and renal). Ouabain and digoxin were used as controls. Paclitaxel was added as a non-Na^+K^+-ATPase inhibitor control.

PCJ (Prostate) = test: SRB assay, PCJ; format: cell-based; conditions: Homo sapiens, 48 h
Method: as §1, §2, §3, §4, §5, §6, §7, §8

SF268 (CNS) = test: SRB assay, SF268; format: cell-based; conditions: Homo sapiens
Method: as §1, §2, §3, §4, §5, §6, §7, §8

MCF7 (Breast) = test: SRB assay, MCF7; format: cell-based, human
Method: as §1, §2, §3, §4, §5, §6, §7, §8

HCT116 (Colon) = test: SRB assay, HCT116; format: cell-based; conditions: Homo sapiens
Method: as §1, §2, §3, §4, §5, §6, §7, §8

[2] = system: membrane androgen receptor; test: Membrane androgen receptor competition assay, DU145 cells; format: binding; conditions: 40 μM compound 30 minutes before 40 μM testosterone-HSA-FITC, FIGS. 3B, 3C
Description: To assess whether compounds of the invention were capable of binding directly to the membrane androgen receptor, a fluorescent-based assay was used to measure the ability of a given compound to preclude binding of a fluorescent mAR ligand (testosterone-HSA-FITC conjugates) to its receptor in LNCaP and DU145 cells (see Kampa, M et al, 2002, Faseb J 16:1429-1431, and PCT/U52007/007913).
The detection of membrane androgen receptors using fluorescent testosterone-serum albumin conjugates was performed as described by Kampa, M et al, 2002, Faseb J 16:1429-1431, with minor modifications. Briefly, LNCaP or DU145 prostate cancer cells were cultured on 0.1% gelatin-coated glass coverslips in RPMI 1640 medium supplemented with 2 mM L-Glutamine, 10% Fetal Bovine Serum and 1% Penicillin/Streptomycin for at least 48 hours until reaching 70% confluency. After a 24 hour serum starvation period, cells were incubated with 40 μM testosterone-HSA-FITC for 1 hour at room temperature. The cells were then washed three times with phosphate buffered saline (PBS) and fixed with 3.7% formaldehyde in PBS for 5 minutes at room temperature. Human serum albumin-FITC was used as a control for background staining. […] Coverslips were mounted on slides by using the Slow Fade/Antifade Reagent (Molecular Probes) and studied under a LEICA DMLB microscope, equipped with the appropriate fluorescence filters and a Leica DC 300F camera. Specimens were analyzed using the Leica FW4000 computer program.
To determine the capacity of a given compound to preclude binding of fluorescent testosterone-HSA conjugates (TAC) to the membrane androgen receptor, starved LNCaP or DU145 cells on coverslips prepared as described above were pre-treated with 40 μM of the indicated compound for 30 minutes prior to the addition of testosterone-HSA-FITC. […] Specimens were prepared and analyzed as described above. Compounds binding to the membrane androgen receptor preclude binding of fluorescent testosterone-HSA conjugates to their target and abolish membrane-specific fluorescence.

With `C[C@]12CCC(=NOCCn3cc(CN)nn3)CC1CCC1C2CC[C@]2(C)C(=O)CCC12` (stereo partly drawn) [Compound 31, (10S,13S)-3-(2-(4-(aminomethyl)-1H-1,2,3-triazol-1-yl)ethoxyimino)-10,13-dimethyltetradecahydro-1H-cyclopenta[a]phenanthren-17(2H)-one] the “viability and/or cell proliferation of neoplastic cell lines” value [1] was “reduced the viability and/or cell proliferation”.

With `C[C@@H]1O[C@@H](O[C@H]2C[C@@H](O)[C@]3(CO)[C@H]4[C@H](O)C[C@]5(C)[C@@H](C6=CC(=O)OC6)CC[C@]5(O)[C@@H]4CC[C@]3(O)C2)[C@H](O)[C@H](O)[C@H]1O` [Ouabain, reference compound] the TGI (H160 (Lung); H160, SRB) was 100 nM, the CC50 (H160 (Lung); Homo sapiens, read-out: LC50) was 300 nM and the GI50 (H160 (Lung); Homo sapiens, H160, SRB) was less than 80 nM. The CC50 (PCJ (Prostate); read-out: LC50) was 300 nM, the GI50 (PCJ (Prostate); PCJ, SRB) was less than 80 nM and the IC (TGI) (PCJ (Prostate); PCJ, SRB) was 100 nM. For the same compound, the CC50 (SF268 (CNS); SF-268, 48 h, read-out: LC50) was 300 nM, the GI50 (SF268 (CNS); SF-268, SF268, SRB, 48 h, read-out: GI50) was less than 80 nM and the IC (TGI) (SF268 (CNS); SF-268, SF268, SRB, 48 h, read-out: TGI) was 100 nM. For the same compound, the CC50 (MCF7 (Breast); Homo sapiens, MCF7, 48 h, read-out: LC50) was 300 nM, the GI50 (MCF7 (Breast); Homo sapiens, MCF7, SRB, 48 h) was less than 80 nM and the TGI (MCF7 (Breast); MCF7, SRB, 48 h) was 200 nM. For the same compound, the CC50 (HCT116 (Colon); HCT-116, 48 h, read-out: LC50) was greater than 50000 nM, the GI50 (HCT116 (Colon); HCT-116, HCT116, SRB, 48 h) was less than 80 nM and the IC (TGI) (HCT116 (Colon); HCT-116, HCT116, SRB, 48 h) was 4500 nM.

In the case of `C[C@]12CC[C@H](O)C[C@H]1CC[C@@H]1[C@@H]2CC[C@]2(C)[C@@](O)(c3ccoc3)CC[C@]12O` [rostafuroxin, reference compound], the “membrane fluorescence of TAC-FITC after pre-treatment (binding to mAR precluded)” value [2] is reported as “failed to block binding of TAC-FITC to mAR”.
